Results on three compounds are retold here after the NIST ThermoML archive (doi:10.1016/j.tca.2010.03.027).

Numbers after ± are expanded uncertainties.

Data set [1] can be described thus: xn = mol fraction of the nth substance listed. To be noted: 293 K, 101 kPa, Crystal, X-ray diffraction.
The conditions of data set [2]: Crystal; for Normal melting temperature: DTA.

In general, mass density refers to mass per unit of volume. Consider `[Br-].[Br-].[Ca+2]` [calcium bromide] + [Ca+2].[Cl-].[Cl-], for which the mass density came to 3536 ± 2 kg/m3 in data set [1] (x1 = 0.15); 3836 ± 2 kg/m3 in data set [1] (x1 = 0.3); 4112 ± 2 kg/m3 in data set [1] (x1 = 0.45); 4371 ± 2 kg/m3 in data set [1] (x1 = 0.6); 4628 ± 2 kg/m3 in data set [1] (x1 = 0.75); 4861 ± 2 kg/m3 in data set [1] (x1 = 0.9). Also, the mass density in data set [1] (x1 = 1) stood at 5060 ± 2 kg/m3.

As to `[Ca+2].[Cl-].[Cl-]` [calcium chloride], the Normal melting temperature in data set [2] amounted to 770 ± 1 °C.

`[Br-].[Br-].[Ca+2]` [calcium bromide]: in data set [2] (293 K, 101.3 kPa, X-ray diffraction), the mass density is reported as 5060 ± 2 kg/m3. Besides, the Normal melting temperature in data set [2] was 738 ± 1 °C.
